Assay results taken from ChEMBL document CHEMBL3046906, “Effects of acibenzolar-S-methyl on the suppression of Fusarium wilt of cyclamen” (Crop Prot, 2006).
Calls of active or inactive are those of the source. The rule behind the calls is not given here.

What was measured:
Cyclamen persicum [1] = test: Phytotoxicity in Cyclamen persicum seedlings assessed as decrease in foliar dry mass at 10 to 50 ug a.i/ml applied as spray; type: organism-based; set-up: scale not given: the % may be the effect or the level left; conditions: in vivo, other
[2] = tested on: Fusarium oxysporum f. sp. cyclaminis; test: Antifungal activity against 1 CFU of Fusarium oxysporum f. sp. cyclaminis infested cyclamen seedlings assessed as delay in development of decrease severity at 50 ug a.i/ml applied as spray; type: functional, organism-based
Cyclamen persicum [3] = test: Phytotoxicity in Cyclamen persicum seedlings assessed as visible damage on leaves at 10 to 50 ug a.i/ml applied as spray; type: organism-based; conditions: in vivo, topical_or_ocular
[4] = tested on: Fusarium oxysporum f. sp. cyclaminis; test: Antifungal activity against 1 CFU of Fusarium oxysporum f. sp. cyclaminis infested cyclamen seedlings assessed as increase in foliar dry mass at 50 ug a.i/ml applied as spray relative to untreated control; type: functional, organism-based
[5] = tested on: Fusarium oxysporum f. sp. cyclaminis; test: Antifungal activity against […] of Fusarium oxysporum f. sp. cyclaminis infested cyclamen seedlings assessed as delay in development of disease symptoms at 50 ug a.i/ml applied as spray relative to untreated control; type: functional, organism-based
Cyclamen persicum [6] = test: Phytotoxicity in Cyclamen persicum seedlings assessed as decrease in effect on flower number at 10 to 50 ug a.i/ml applied as spray; type: organism-based; conditions: in vivo, other
[7] = tested on: Fusarium oxysporum f. sp. cyclaminis; test: Antifungal activity against Fusarium oxysporum f. sp. cyclaminis infested cyclamen seedlings assessed as delay in development of disease symptoms at 50 ug a.i/ml applied as spray; type: functional
Cyclamen persicum [8] = test: Phytotoxicity in Cyclamen persicum seedlings assessed as decrease in effect on flower quality at 10 to 50 ug a.i/ml applied as spray; type: organism-based; conditions: in vivo, other
Cyclamen persicum [9] = test: Phytotoxicity in Cyclamen persicum seedlings assessed as decrease in foliar dry mass at 50 ug a.i/ml applied as spray; type: organism-based; set-up: scale not given: the % may be the effect or the level left; conditions: in vivo, other
[10] = tested on: Fusarium oxysporum f. sp. cyclaminis; test: Antifungal activity against Fusarium oxysporum f. sp. cyclaminis infested cyclamen seedlings assessed as increase in foliar dry mass at 10 to 50 ug a.i/ml applied as spray; type: functional, organism-based

## CSC(=O)c1cccc2nnsc12 [ACIBENZOLAR-S-METHYL]
Cyclamen persicum [1]
  Activity: 36%
[2]
  Activity: Active
Cyclamen persicum [3]
  Activity: Non-toxic
[4]
  Activity: Active
[5]
  Activity: Active
Cyclamen persicum [6]
  Activity: Non-toxic
[7]
  Time: 20 days
Cyclamen persicum [8]
  Activity: Non-toxic
Cyclamen persicum [9]
  Activity: 65%
[10]
  Activity: Active
